Patent US20210045385A1, “PYRIDAZINONE-SUBSTITUTED KETOXIMES AS HERBICIDES” (FMC Corporation, priority 2018, published 2021)

Key:
Assay type in all cases: in vivo
[1] = system: barnyardgrass (Echinochloa crus-galli); test: Test A postemergence, visual plant response rating; settings: for Barnyardgrass plant response rating (0 to 100 scale): 500 g ai/ha, postemergence, 0 is no effect, 100 is complete control; for Barnyardgrass plant response rating: Postemergence, 125 g ai/ha, 0 to 100 scale (0 no effect, 100 complete control)
Text: (§1) Seeds of plant species selected from barnyardgrass (Echinochloa crus-galli), kochia (Kochia scoparia), ragweed (common ragweed, Ambrosia elatior), Italian ryegrass (Lolium multiflorum), foxtail, giant (giant foxtail, Setaria faberii), foxtail, green (green foxtail, Setaria viridis), and pigweed (Amaranthus retroflexus) were planted into a blend of loam soil and sand and treated preemergence with a directed soil spray using test chemicals formulated in a non-phytotoxic solvent mixture which included a surfactant.
(§2) At the same time, plants selected from these weed species and also wheat (Triticum aestivum), corn (Zea mays), blackgrass (Alopecurus myosuroides), and galium (catchweed bedstraw, Galium aparine) were planted in pots containing the same blend of loam soil and sand and treated with postemergence applications of test chemicals formulated in the same manner. Plants ranged in height from 2 to 10 cm and were in the one- to two-leaf stage for the postemergence treatment. Treated plants and untreated controls were maintained in a greenhouse for approximately 10 days, after which time all treated plants were compared to untreated controls and visually evaluated for injury. Plant response ratings, summarized in Table A, are based on a 0 to 100 scale where 0 is no effect and 100 is complete control. A dash (-) response means no test result.

[2] = system: blackgrass (Alopecurus myosuroides); test: Test A postemergence, visual plant response rating; settings: for Blackgrass plant response rating (0 to 100 scale): 500 g ai/ha, postemergence, 0 is no effect, 100 is complete control; for Blackgrass plant response rating: Postemergence, 125 g ai/ha, 0 to 100 scale (0 no effect, 100 complete control)
Text: as §1, §2

[3] = system: foxtail, giant (giant foxtail, Setaria faberii); test: Test A postemergence, visual plant response rating; settings: for Foxtail, Giant plant response rating (0 to 100 scale): 500 g ai/ha, postemergence, 0 is no effect, 100 is complete control; for Foxtail, Giant plant response rating: Postemergence, 125 g ai/ha, 0 to 100 scale (0 no effect, 100 complete control)
Text: as §1, §2

[4] = system: ragweed (common ragweed, Ambrosia elatior); test: Test A postemergence, visual plant response rating; settings: for Ragweed plant response rating (0 to 100 scale): 500 g ai/ha, postemergence, 0 is no effect, 100 is complete control; for Ragweed plant response rating: Postemergence, 125 g ai/ha, 0 to 100 scale (0 no effect, 100 complete control)
Text: as §1, §2

[5] = system: galium (catchweed bedstraw, Galium aparine); test: Test A postemergence, visual plant response rating; settings: for Galium plant response rating (0 to 100 scale): 500 g ai/ha, postemergence, 0 is no effect, 100 is complete control; for Galium plant response rating: Postemergence, 125 g ai/ha, 0 to 100 scale (0 no effect, 100 complete control)
Text: as §1, §2

[6] = system: kochia (Kochia scoparia); test: Test A postemergence, visual plant response rating; settings: for Kochia plant response rating (0 to 100 scale): 500 g ai/ha, postemergence, 0 is no effect, 100 is complete control; for Kochia plant response rating: Postemergence, 125 g ai/ha, 0 to 100 scale (0 no effect, 100 complete control)
Text: as §1, §2

[7] = system: pigweed (Amaranthus retroflexus); test: Test A postemergence, visual plant response rating; settings: for Pigweed plant response rating (0 to 100 scale): 500 g ai/ha, postemergence, 0 is no effect, 100 is complete control; for Pigweed plant response rating: Postemergence, 125 g ai/ha, 0 to 100 scale (0 no effect, 100 complete control)
Text: as §1, §2

[8] = system: wheat (Triticum aestivum); test: Test A postemergence, visual plant response rating; settings: for Wheat plant response rating (0 to 100 scale): 500 g ai/ha, postemergence, 0 is no effect, 100 is complete control; for Wheat plant response rating: Postemergence, 125 g ai/ha, 0 to 100 scale (0 no effect, 100 complete control)
Text: as §1, §2

[9] = system: Italian ryegrass (Lolium multiflorum); test: Test A postemergence, visual plant response rating; settings: for Ryegrass, Italian plant response rating (0 to 100 scale): 500 g ai/ha, postemergence, 0 is no effect, 100 is complete control; for Ryegrass, Italian plant response rating: Postemergence, 125 g ai/ha, 0 to 100 scale (0 no effect, 100 complete control)
Text: as §1, §2

[10] = system: corn (Zea mays); test: Test A postemergence, visual plant response rating; settings: for Corn plant response rating (0 to 100 scale): 500 g ai/ha, postemergence, 0 is no effect, 100 is complete control; for Corn plant response rating: Postemergence, 125 g ai/ha, 0 to 100 scale (0 no effect, 100 complete control)
Text: as §1, §2

[11] = system: barnyardgrass (Echinochloa crus-galli); test: Test A preemergence, visual plant response rating; settings: for Barnyardgrass plant response rating: 125 g ai/ha, preemergence, 0 to 100 scale, 0 no effect, 100 complete control; for Barnyardgrass plant response rating (0 to 100 scale): 500 g ai/ha Preemergence, approx. 10 days
Text: as §1, §2

[12] = system: foxtail, giant (giant foxtail, Setaria faberii); test: Test A preemergence, visual plant response rating; settings: for Foxtail, Giant plant response rating: 125 g ai/ha, preemergence, 0 to 100 scale, 0 no effect, 100 complete control; for Foxtail, Giant plant response rating (0 to 100 scale): 500 g ai/ha Preemergence, approx. 10 days
Text: as §1, §2

[13] = system: ragweed (common ragweed, Ambrosia elatior); test: Test A preemergence, visual plant response rating
Text: as §1, §2

[14] = system: kochia (Kochia scoparia); test: Test A preemergence, visual plant response rating; settings: for Kochia plant response rating: 125 g ai/ha, preemergence, 0 to 100 scale, 0 no effect, 100 complete control; for Kochia plant response rating (0 to 100 scale): 500 g ai/ha Preemergence, approx. 10 days
Text: as §1, §2

[15] = system: pigweed (Amaranthus retroflexus); test: Test A preemergence, visual plant response rating; settings: for Pigweed plant response rating: 125 g ai/ha, preemergence, 0 to 100 scale, 0 no effect, 100 complete control; for Pigweed plant response rating (0 to 100 scale): 500 g ai/ha Preemergence, approx. 10 days
Text: as §1, §2

[16] = system: Italian ryegrass (Lolium multiflorum); test: Test A preemergence, visual plant response rating; settings: for Ryegrass, Italian plant response rating: 125 g ai/ha, preemergence, 0 to 100 scale, 0 no effect, 100 complete control; for Ryegrass, Italian plant response rating (0 to 100 scale): 500 g ai/ha Preemergence, approx. 10 days
Text: as §1, §2

[17] = system: barnyardgrass (Echinochloa crus-galli); test: Test B flooded paddy test, visual plant response rating; settings: 250 g ai/ha, Flood, applied to paddy water, 2-leaf stage, evaluated after 13 to 15 days
Description: (§3) Plant species in the flooded paddy test selected from rice (Oryza sativa), sedge, umbrella (small-flower umbrella sedge, Cyperus difformis), ducksalad (Heteranhera limosa), and barnyardgrass (Echinochloa crus-galli) were grown to the 2-leaf stage for testing. At time of treatment, test pots were flooded to 3 cm above the soil surface treated by application of test compounds directly to the paddy water, and then maintained at that water depth for the duration of the test. Treated plants and controls were maintained in a greenhouse for 13 to 15 days, after which time all species were compared to controls and visually evaluated. […] A dash (-) response means no test result.

[18] = system: ducksalad (Heteranhera limosa); test: as above; settings: 250 g ai/ha, Flood, applied to paddy water, 2-leaf stage, evaluated after 13 to 15 days
Description: as §3

[19] = system: sedge, umbrella (small-flower umbrella sedge, Cyperus difformis); test: as above; settings: 250 g ai/ha, Flood, applied to paddy water, 2-leaf stage, evaluated after 13 to 15 days
Description: as §3

[20] = system: rice (Oryza sativa); test: as above; settings: 250 g ai/ha, Flood, applied to paddy water, 2-leaf stage, evaluated after 13 to 15 days
Description: as §3

Row | SMILES | Barnyardgrass plant response rating (0 to 100 scale) [1] | Barnyardgrass plant response rating [1] | Blackgrass plant response rating (0 to 100 scale) [2] | Blackgrass plant response rating [2] | Foxtail, Giant plant response rating (0 to 100 scale) [3] | Foxtail, Giant plant response rating [3] | Ragweed plant response rating (0 to 100 scale) [4] | Ragweed plant response rating [4] | Galium plant response rating (0 to 100 scale) [5] | Galium plant response rating [5] | Kochia plant response rating (0 to 100 scale) [6] | Kochia plant response rating [6] | Pigweed plant response rating (0 to 100 scale) [7] | Pigweed plant response rating [7] | Wheat plant response rating (0 to 100 scale) [8] | Wheat plant response rating [8] | Ryegrass, Italian plant response rating (0 to 100 scale) [9] | Ryegrass, Italian plant response rating [9] | Corn plant response rating (0 to 100 scale) [10] | Corn plant response rating [10] | further results
1 | CON=C(c1c(O)c(C)nn(C)c1=O)c1cccc2ccc(Cl)cc12 [Compound 110] | 70 | 50 | 90 | 90 | 90 | 50 | 90 | 60 | 100 | 90 | 60 | 50 | 100 | 90 | 0 | 0 | 80 | 30 | 30 | 10 | Barnyardgrass plant response rating [11]: 70; Barnyardgrass plant response rating (0 to 100 scale) [11]: 80; Foxtail, Giant plant response rating [12]: 60; Foxtail, Giant plant response rating (0 to 100 scale) [12]: 100; Ragweed plant response rating ([13]; 125 g ai/ha, preemergence, 0 to 100 scale, 0 no effect, 100 complete control): 40; Ragweed plant response rating (0 to 100 scale) ([13]; 500 g ai/ha Preemergence, approx. 10 days): 90; Kochia plant response rating [14]: 0; Kochia plant response rating (0 to 100 scale) [14]: 10; Pigweed plant response rating [15]: 50; Pigweed plant response rating (0 to 100 scale) [15]: 100; Ryegrass, Italian plant response rating [16]: 60; Ryegrass, Italian plant response rating (0 to 100 scale) [16]: 70; Plant response rating, Barnyardgrass (0 to 100 scale, 0 is no effect, 100 is complete control) [17]: 0; Plant response rating, Ducksalad (0 to 100 scale, 0 is no effect, 100 is complete control) [18]: 0; Plant response rating, Sedge, Umbrella (0 to 100 scale, 0 is no effect, 100 is complete control) [19]: 0; Plant response rating, Rice (0 to 100 scale, 0 is no effect, 100 is complete control) [20]: 0
2 | CON=C(c1cc(Cl)ccc1Cl)c1c(O)c(C)nn(C)c1=O [Compound 90] | 60 | 20 | 90 | 80 | 80 | 30 | 90 | 70 | 90 | 90 | 80 | 60 | 90 | 60 | 40 | 30 | 90 | 80 | 30 | 20 | Barnyardgrass plant response rating [11]: 60; Barnyardgrass plant response rating (0 to 100 scale) [11]: 80; Foxtail, Giant plant response rating [12]: 50; Foxtail, Giant plant response rating (0 to 100 scale) [12]: 90; Kochia plant response rating [14]: 50; Kochia plant response rating (0 to 100 scale) [14]: 70; Pigweed plant response rating [15]: 90; Pigweed plant response rating (0 to 100 scale) [15]: 100; Ryegrass, Italian plant response rating [16]: 60; Ryegrass, Italian plant response rating (0 to 100 scale) [16]: 90; Plant response rating, Barnyardgrass (0 to 100 scale, 0 is no effect, 100 is complete control) [17]: 0; Plant response rating, Ducksalad (0 to 100 scale, 0 is no effect, 100 is complete control) [18]: 0; Plant response rating, Sedge, Umbrella (0 to 100 scale, 0 is no effect, 100 is complete control) [19]: 0; Plant response rating, Rice (0 to 100 scale, 0 is no effect, 100 is complete control) [20]: 0
